Measured values reported in patent US20220211728A1, “ALKYL-TPP COMPOUNDS FOR MITOCHONDRIA TARGETING AND ANTI-CANCER TREATMENTS” (LUNELLA BIOTECH, INC., priority 2019, published 2022).
“Also recorded” adds a separate entry of the source. Like-named read-outs stand apart in the source and are kept apart here.

How the values were obtained:
[1] = tested on: human breast tumors initiated from the MDA-MB-231 cell line; assay: CAM assay, tumor growth and metastasis; format: in vivo, chicken embryos
Protocol: (§1) Further evaluation of both efficacy and toxicity was performed on human breast tumors initiated from the MDA-MB-231 cell line in chicken embryos using the CAM Model available from Inovotion (La Tronche, France). […] With respect to the CAM assay, fertilized eggs were incubated at 37.5° C. with 50% relative humidity for 9 days. The graft was dropped into each egg through a small hole drilled through the eggshell into the air sac, and a 1 cm^2 window cut in the eggshell above the CAM. This grafting process was used for each egg in a test group. Because the grafting process is an invasive surgical act, some death is expected to occur during hours after the tumor graft. For the data reported herein, at least 10 eggs per test group were successfully grafted.
The MDA-MB-231 tumor cell line was cultivated in DMEM medium supplemented with 10% FBS and 1% penicillin/streptomycin. After the 9-day incubation period, cells were detached with trypsin, washed with complete medium, and suspended in a graft medium. An inoculum of 1.10^6 cells was added onto the CAM of each egg, and then eggs were randomized into test groups. Tumors were detectable within one day of the graft. The negative control group was a 0.125% DMSO in PBS, and d-TPP groups for concentrations of 6.25 μM, […], were evaluated. Each egg in a group was treated 8 times per day. After 8 days of treatments, tumor growth was quantitatively evaluated. The upper portion of the CAM (with the tumor) was removed, washed in a PBS buffer, and then directly transferred in PFA for a 48-hour fixation. Tumors were then carefully cut away from normal CAM tissue and weighed. For all quantitative data relating to the chicken egg evaluation, a one-way ANOVA (with post-tests between each couple of groups) was performed with the specialized computer software Prism® (GraphPad Software). For all analyses, statistical difference between groups is made visible on graphs by the presence of stars with the following meaning: no asterisk means p>0.05; * means […]; ** means 0.01≥p>0.001; and *** means 0.001≥p. […] Consistent with the evaluations described above, the d-TPP tumor growth inhibition effect was dose-dependent.
Metastatic invasion was also quantitatively evaluated. A 1 cm^2 portion of the lower CAM was collected to evaluate the number of metastatic cells in 8 samples per group (n=8). Genomic DNA was extracted from the CAM using a commercial kit, and analyzed by qPCR with specific primers for Human Alu sequences. Calculation of Cq for each sample, mean Cq and relative amounts of metastases for each group were directly managed by the Bio-Rad® CFX Maestro software. […]

chicken embryos = assay: CAM assay, embryonic tolerability; format: in vivo
Protocol: as §1
Embryonic tolerability of the d-TPP treatments were also quantitatively evaluated. Embryonic viability was checked daily following grating and during treatment. The number of dead embryos was also counted on the final day, to evaluate treatment-induced embryo toxicity. […] It should be appreciated by those having an ordinary level of skill in the art that toxicity should be analyzed for establishing a dosing regimen.

MCF-7 cells [2] = assay: Seahorse XFe96 metabolic flux analysis, extracellular acidification rate (ECAR); format: cell-based, human; details: MCF-7, d-TPP 50 nM to 500 nM
Protocol: (§2) The extracellular acidification rate (ECAR) and real-time oxygen consumption rate (OCR) assays for metabolic flux analysis were performed using the Seahorse Extracellular Flux (XFe-96) analyzer (Seahorse Bioscience). Briefly, 15,000 MCF-7 cells per well were seeded into XFe-96 well cell culture plates, and incubated overnight to allow attachment. Cells were then treated with increasing concentrations of d-TPP (50 nM+500 nM) for 24 hours. Vehicle alone (DMSO) control cells were processed in parallel. Then, cells were washed in pre-warmed XF assay media (or for OCR measurement, XF assay media supplemented with 10 mM glucose, 1 mM Pyruvate, 2 mM L-glutamine and adjusted at 7.4 pH). Cells were then maintained in 175 μL/well of XF assay media at 37 C, in a non-CO2 incubator for 1 hour. During the incubation time, 5 μL of 80 mM glucose, 9 μM oligomycin, and 1 M 2-deoxyglucose (for ECAR measurement) or 10 μM oligomycin, 9 μM FCCP, 10 μM Rotenone, 10 μM antimycin A (for OCR measurement), were loaded in XF assay media into the injection ports in the XFe-96 sensor cartridge. Data set was analyzed by XFe-96 software after the measurements were normalized by protein content (SRB). All experiments were performed three times independently.

[3] = tested on: MCF-7 breast cancer cells; assay: mammosphere formation assay (CSC propagation) in MCF-7 cells; format: cell-based, human; details: for IC50: Homo sapiens, MCF7
Protocol: (§3) The mammosphere assay was performed as follows. A single cell suspension of MCF-7 or MDA-MB-231 cells was prepared using enzymatic (1× Trypsin-EDTA, Sigma Aldrich), and manual disaggregation (25 gauge needle). Cells were then plated at a density of 500 cells/cm^2 in mammosphere medium (DMEM-F12/B27/20-ng/ml EGF/PenStrep) in nonadherent conditions, in culture dishes coated with (2-hydroxyethylmethacrylate) (poly-HEMA, Sigma Aldrich), in the presence of treatments, were required. Cells were grown for 5 days and maintained in a humidified incubator at 37° C. at an atmospheric pressure in 5% (v/v) carbon dioxide/air. After 5 days for culture, spheres >50 μm were counted using an eye piece graticule, and the percentage of cells plated which formed spheres was calculated and is referred to as percentage mammosphere formation. Mammosphere assays were performed in triplicate and repeated three times independently.

[4] = tested on: MDA-MB-231 triple negative breast cancer cells; assay: mammosphere formation assay (CSC propagation) in MDA-MB-231 cells; format: cell-based, human
Protocol: as §3

[5] = tested on: MCF-7 breast cancer cells; assay: cell viability by sulphorhodamine (SRB) assay in MCF-7 cells; format: cell-based; details: Homo sapiens, MCF7, 250 nM, 500 nM and 1 μM, read-out: reduction in cell viability
Protocol: (§4) Cell viability was assessed in MCF-7 and hTERT-BJ1 cells by sulphorhodamine (SRB) assay, based on the measurement of cellular protein content. After treatment with d-TPP (50 nM+1 μM) for 24, 48 or 72 hours, cells were fixed with 10% trichloroacetic acid (TCA) for 1 hour in cold room, and dried overnight at room temperature. Then, cells were incubated with SRB for 15 min, washed twice with 1% acetic acid, and air dried for at least 1 hour. Finally, the protein-bound dye was dissolved in 10 mM Tris pH 8.8 solution and read using a plate reader at 540 nm.

MCF-7 cells [6] = assay: Seahorse XFe96 metabolic flux analysis, oxygen consumption rate (OCR); format: cell-based, human
Protocol: as §2

adherent MCF-7 cells = assay: xCELLigence real-time cell analysis of cell proliferation; format: cell-based, human
Protocol: The xCELLigence system was used to analyze the kinetics of d-TPP action on cell proliferation of adherent MCF-7 cells. The xCELLigence system evaluates the real-time, label-free monitoring of cell health and behavior, by measuring the electrical impedance, whose magnitude is dependent on the number of cells. Real-time cell analysis was performed for 48-hour and 72-hour treatment with d-TPP, at concentrations of 50 nM, 100 nM, and 250 nM. The control was vehicle-only. The results for the 48-hour d-TPP treatment are shown in FIGS. 8A and 8B, and FIGS. 8C and 8D show results for the 72-hour d-TPP treatment.
The xCELLigence Real-time cell analysis (RTCA) System was sourced from ACEA Biosciences Inc. The xCELLigence RTCA system provides a useful approach for the real-time monitoring of the biological status of adherent cells, by measuring the electrical impedance, expressed as a cell index (CI) value. 5000 MCF-7 cells were seeded in a 16-well plate (E-plate). 24 hours after seeding, cells were treated with vehicle or increasing concentrations of d-TPP (from 50 nM to 250 nM) for additional 48 hours or 72 hours. RTCA was performed by measuring the cell-induced electrical impedance values, which were automatically recorded every 15 min for 96 h. This approach allows the quantification of the onset and kinetics of the cellular response. Experiments were repeated three times independently, using quadruplicate samples for each condition.

[7] = tested on: normal human fibroblasts (hTERT-BJ1); assay: cell viability by sulphorhodamine (SRB) assay in normal fibroblasts; format: cell-based
Protocol: as §4

[8] = tested on: MCF-7 breast cancer cells; details: b-TPP, identified in International Application PCT/US2018/062174; read-out: IC-50 inhibiting CSC propagation; cited from earlier work
[9] = Berberine chloride 10 μM with d-TPP 100 nM

CCCCCCCCCCC[P+](c1ccccc1)(c1ccccc1)c1ccccc1 [d-TPP, dodecyl-TPP]
inhibition of metastasis ([1]; 25 μM concentration): ~75%
inhibition of tumor growth ([1]; 25 sM concentration): ~40%
tumor growth (tumor weight) compared to the negative control ([1]; medium (25.0 μM) and high (62.5 μM) doses): significantly inhibited
metastatic invasion (qPCR for Alu sequences in the lower CAM) compared to the negative control ([1]; medium dose): metastasis regression
embryo toxicity (chicken embryos; higher dose): resulted in mortality
embryo toxicity (chicken embryos; medium and low doses): did not exhibit toxicity
glycolysis (ECAR) (MCF-7 cells [2]): substantially and dose-dependently increased
IC50 ([3]; MCF-7, read-out: concentration necessary to half CSC activity): ~0.25 µM
potency in inhibiting mammosphere formation / CSC propagation compared with b-TPP (other TPP-derivatives) ([3]; MCF-7): twice as potent; also recorded: more than twice as potent
reduction in mammosphere formation ([3]; MCF-7, d-TPP 50 nM and 100 nM): 20%
reduction in CSC propagation (mammosphere formation) ([3]; MCF-7, d-TPP 500 nM and 1 μM): 80%
inhibition at 1 µM ([4]; Homo sapiens, MDA-MB-231, d-TPP 1 μM): ~80%
effect on CSC propagation (mammosphere formation) ([4]; MDA-MB-231, d-TPP 50 nM (lowest concentration tested)): showed an inhibitory effect
cytotoxicity at 0.25 µM ([5]; MCF-7, 24 hours): ~30%
cytotoxicity at 0.25 µM ([5]; MCF-7, 72 hours): ~80%
IC50 (MCF-7 cells [6]; Homo sapiens, MCF7, MCF-7, 24 hours treatment, read-out: IC-50 basal mitochondrial respiration): ~0.25 µM
oxygen consumption rate (OCR) (MCF-7 cells [6]; MCF-7, d-TPP 50 nM): dramatic reduction
ATP levels (MCF-7 cells [6]; MCF-7, d-TPP 50 nM to 500 nM): dose-dependently depleted
effect on cell number (cell index) (adherent MCF-7 cells; MCF-7, 50 nM d-TPP, 72 h treatment): trend of reduced cell number
effect on cell proliferation (cell index) (adherent MCF-7 cells; MCF-7, 100 nM d-TPP): main cytostatic effect
cytotoxicity (cell index) (adherent MCF-7 cells; MCF-7, 250 nM d-TPP): Cytotoxicity was present
toxicity to hTERT-BJ1 cells ([7]; 50 nM and 100 nM): no toxicity
cell viability of hTERT-BJ1 cells ([7]; 250 nM, 500 nM and 1 μM): decreased

O=CC[C@@H](O)[C@H](O)[C@H](O)CO [2-DG, 2-deoxy-D-glucose]
increase in the inhibitory effect of d-TPP alone ([3]; 2-DG 10 mM with d-TPP 100 nM): 2 fold
residual mammosphere formation capability ([3]; 2-DG 20 mM with d-TPP 100 nM): < 10%

C(=CC[P+](c1ccccc1)(c1ccccc1)c1ccccc1)C[P+](c1ccccc1)(c1ccccc1)c1ccccc1 [b-TPP, 2-butene-1,4-bis-TPP]
IC50 [8]: ~0.5 µM

O=C(Nc1ccc([N+](=O)[O-])cc1Cl)c1cc(Cl)ccc1O [Niclosamide]
increase in efficacy of d-TPP on CSC activity ([3]; Niclosamide 250 nM with d-TPP 100 nM): ~2 fold
increase in efficacy of d-TPP on CSC activity ([3]; Niclosamide 500 nM with d-TPP 100 nM): ~3 fold

COc1ccc2cc3[n+](cc2c1OC)CCc1cc2c(cc1-3)OCO2 [Berberine chloride]
reduction (CSC formation) ([3]; Berberine chloride 1 μM with d-TPP 100 nM): 60%
increase in efficacy of d-TPP [3, 9]: ~5 fold
inhibition of CSC formation [3, 9]: over 80%

O=C1O[C@H]([C@@H](O)CO)C(O)=C1O [Vitamin C, Ascorbic Acid]
IC50 ([3]; Vitamin C separately (without d-TPP), read-out: IC-50 MCF-7 CSC propagation): 1000 µM
inhibition of propagation of CSCs ([3]; Vitamin C 250 μM in combination with d-TPP at 100 nM): over 50%
inhibition of propagation of CSCs ([3]; Vitamin C 500 μM in combination with d-TPP at 100 nM): over 70%
increase in CSC sensitivity to Vitamin C caused by d-TPP ([3]; d-TPP 100 nM): ~4 fold
